Test results reported in PubChem BioAssay AID179 (DTP/NCI, 2004).
Activity calls are given as the source filed them.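 Rule for the calls: active = compounds giving half or more protection of infected cells from virus-caused growth loss, again on retest; inactive = the rest.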

System: CEM cells HIV-1 protection, formazan growth assay
Assay: NCI AIDS Antiviral Assay
Settings: for IC50: measured here: growth of uninfected CEM cells
Method in brief: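 Human CEM cells, uninfected and HIV-1-infected, exposed to five drug concentrations; growth measured by soluble formazan assay and scored as percent protection from infection, with protecting compounds retested.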

SMILES | EC50 [µM] | IC50 [µM] | outcome
O=C(O)C1CCC(c2ccc(Cl)cc2Cl)=N1 (configuration not stated) | > 200 | > 200 | –
COC(=O)C1=C(C(=O)OC)N(C(C)C)[C@H]2C(C(=O)OC)=C(C(=O)OC)N(C(C)C)[C@@H]12 | > 2.45 | > 2.45 | –
Cc1nnc2sc3c(Cl)c4nn5c(C)nnc5sc4c(Cl)c3nn12 | > 200 | 2.95 | –
C[n+]1cccc2ccc(OC(=O)c3ccccc3)cc21 | – | – | inactive
CCCc1cc(=O)c2c(C)c3[nH]c4ccc(Cl)cc4c3c(C)c2[nH]1 | > 200 | 11 | –
CC1=CC2O[C@@H]3C[C@@H](O)[C@](C)(C2(C)CC1=O)C31CO1 (some centres not stated) | > 200 | 3.72 | –
COC(=O)[C@H](Cc1ccccc1)NP(=O)(OC)OCC1OC(n2cc(C)c(=O)[nH]c2=O)CC1N=[N+]=[N-] (some centres not stated) | 83.2 | > 200 | –
CC(NC(=O)C(OC(=O)C(C)NC(=O)OC(C)(C)C)C(C)C)C(=O)OC(C(=O)O)C(C)C (configuration not stated) | > 200 | > 200 | –
CCC[CH2][Sn]([CH2]CCC)([O]C(=O)c1cc(F)ccc1F)[O]C(=O)c1cc(F)ccc1F | > 13.2 | 1 | –
C1=Cc2nc1c(-c1ccncc1)c1ccc([n-]1)c(-c1ccncc1)c1nc(c(-c3ccncc3)c3ccc([n-]3)c2-c2ccncc2)C=C1.[Zn+2] | > 19.1 | > 19.1 | –
O=C(Cc1cccs1)N[C@@H]1C(=O)N2C(C(=O)OC(c3ccccc3)c3ccccc3)=C(CO)CS[C@H]12 | > 200 | 195 | –
COC(=O)CNC(=O)Nc1cc(N2C(=O)ON3C2C(C)(C)N(O)C3(C)C)ccc1C (configuration not stated) | > 200 | 170 | –
Cc1[nH]c2ccccc2c1C1Cc2ccccc2N1C(=O)/C=C\C(=O)O (configuration not stated) | > 724 | 41.7 | –
CCOC(=O)c1ccc(CSc2ccccc2C(=O)OCC)c([N+](=O)[O-])c1 | > 7.08 | > 7.08 | –
N#CC1(C#N)C(c2ccccc2)C=CC12OCCCO2 (configuration not stated) | – | – | inactive
c1ccc(Nc2nnc(-c3ccccc3Nc3ccccc3-c3nnc(Nc4ccccc4)s3)s2)cc1 | > 200 | 105 | –
CCC(C)c1cccc(C)c1NC(=O)C(=O)Cc1nc2ccccc2s1 (configuration not stated) | > 186 | > 186 | –

SMILES | EC50 [µM] | IC50 [µM] | outcome
OCC(O)CNc1ccnc2cc(Cl)ccc12 (configuration not stated) | > 631 | 117 | –
CC1(C)CCCC2OC2CCC(C)(C)C1=O (configuration not stated) | > 200 | > 200 | –
c1nc(SSc2ncnc3nc[nH]c23)c2[nH]cnc2n1 | > 20 | 0.457 | –
COC(=O)C1(CC(=O)OCc2ccccc2)NCCc2c1[nH]c1ccccc21 (configuration not stated) | > 3.31 | > 3.31 | –
O=C1c2ccccc2C(=O)N1N1CC1c1ccccc1 (configuration not stated) | > 200 | 138 | –
Cc1nc(Nc2ccc(Cl)cc2)sc1C(=O)Nc1cccc2c(=O)[nH][nH]c(=O)c12 | > 17 | > 17 | –
CCOP(=O)(OCC)C1CCCCOC1=O (configuration not stated) | – | – | inactive
CCN(CC)CCOc1ccc(C(O)(Cc2ccc(OC)cc2)c2ccccc2)cc1 (configuration not stated) | – | – | inactive
C1=c2ccccc2=C2C(=C(c3ccccc3)C(c3ccccc3)=NN2c2ccccc2)S1 | > 4.68 | > 4.68 | –
COC(=N)CCNC(=O)C(O)C(O)C(=O)NCCC(=N)OC (configuration not stated) | > 646 | > 646 | –
C/C(=N\NC(N)=O)c1sc(-c2nc(C)c(/C(C)=N/NC(N)=O)s2)nc1C | > 9.55 | > 9.55 | –
O=C(O)c1cc(CNc2ccc(/C=C/c3ccc(NCc4ccc(O)c(C(=O)O)c4)cc3S(=O)(=O)O)c(S(=O)(=O)O)c2)ccc1O | 102 | 263 | –
CC(=O)Nc1ccccc1C[P+](c1ccccc1)(c1ccccc1)c1ccccc1 | > 200 | > 200 | –
COc1ccc(C(=O)C(CN2CCOCC2)CN2CCOCC2)cc1 | > 200 | 1.32 | –
CC(C)(C)OC(=O)N(CCCCNCc1ccc2ccccc2c1)CCCNCc1ccc2ccccc2c1 | > 2 | 1.05 | –
O=c1oc2ccccc2c(O)c1C(c1ccc2c(c1)OCO2)c1c(O)c2ccccc2oc1=O | > 200 | 75.9 | –
